# Source: patent publication US12565504B2, “Spirocyclic O-glycoprotein-2-acetamido-2-deoxy-3-d-glucopyranosidase inhibitors” (BIOGEN MA INC., priority 2019, dated 2026)
# Legend:
# [1] = biological target: Recombinant full length human OGA enzyme (Homo sapiens (Human), UniProt O60502); test: OGA Enzyme Inhibition Biochemical Assay; conditions: 1 nM OGA, 100 μM 4-MUGlcNAc, 90 minutes, pH 6.4
# Method: Recombinant full length human OGA enzyme was purchased from Origene. 4-MUGlcNAc substrate was purchased from Sigma. All other reagents were purchased from Sigma or Fisher. Assay buffer consists of the McIlvaine buffer system, pH 6.4 (0.2M Na2HPO4 mixed with 0.1M citric acid) and 0.01% BSA. […] Reactions were incubated for 90 minutes at room temperature and quenched with 40 μl of 3M glycine, pH 10 and read on a Perkin Elmer Envision plate reader (Ex: 355 nm/Em: 460 nm). Compounds were tested with a 10-point dose-response starting from 20 μM with a 4-fold dilution. Data was fit using GraphPad Prism using a 4-parameter fit with variable slope.
# OGA (S400 O-GLCNAC) = OGA (S400 O-GLCNAC) (Homo sapiens (Human), UniProt O60502); test: Cellular OGA-Tau MSD Assay; assay type: cell-based; conditions: HEK-293T cells transfected with OGT and Tau-V5; Tau-S400-GlcNAc MSD readout
# OGA (S400 O-GLCNAC), sequence (O60502 whole entry): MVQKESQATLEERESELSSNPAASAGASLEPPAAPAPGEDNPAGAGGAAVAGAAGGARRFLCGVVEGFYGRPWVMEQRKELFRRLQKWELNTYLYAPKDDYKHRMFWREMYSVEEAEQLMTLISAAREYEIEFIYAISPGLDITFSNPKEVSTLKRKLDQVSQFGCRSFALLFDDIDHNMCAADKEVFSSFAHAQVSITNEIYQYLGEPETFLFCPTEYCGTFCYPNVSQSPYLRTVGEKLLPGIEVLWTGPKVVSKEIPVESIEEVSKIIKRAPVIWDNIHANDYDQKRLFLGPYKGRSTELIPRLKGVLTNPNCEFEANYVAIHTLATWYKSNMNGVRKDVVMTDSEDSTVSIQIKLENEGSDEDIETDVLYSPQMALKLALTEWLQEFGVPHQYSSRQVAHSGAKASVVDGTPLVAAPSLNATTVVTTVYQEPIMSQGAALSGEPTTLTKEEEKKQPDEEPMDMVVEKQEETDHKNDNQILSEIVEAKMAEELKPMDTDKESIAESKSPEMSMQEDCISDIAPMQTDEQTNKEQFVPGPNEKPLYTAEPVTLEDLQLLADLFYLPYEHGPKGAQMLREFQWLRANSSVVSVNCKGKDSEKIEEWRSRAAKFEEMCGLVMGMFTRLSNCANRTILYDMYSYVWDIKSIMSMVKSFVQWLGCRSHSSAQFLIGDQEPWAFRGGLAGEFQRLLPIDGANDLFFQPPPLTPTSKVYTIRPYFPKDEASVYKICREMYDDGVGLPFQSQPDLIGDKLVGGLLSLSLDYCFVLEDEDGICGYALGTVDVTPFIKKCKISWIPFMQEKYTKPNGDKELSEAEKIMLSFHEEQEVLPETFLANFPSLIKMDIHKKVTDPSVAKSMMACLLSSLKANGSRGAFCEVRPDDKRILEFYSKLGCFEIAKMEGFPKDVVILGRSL
# Method: HEK-293T cells were transfected with OGT and Tau-V5 plasmids using Lipofectamine and grown overnight. Next day, the cells were collected and re-plated at 1×10^5 cells per well in 96 well plates. Cells were incubated for 4 hr at 37° C., before compounds were added at 1 uM, with 3-fold dilutions in a 10-point titration. Cell plates were incubated with compounds overnight at 37° C. The next day media was removed from wells by gentle aspiration and 120 ul of 1× Cell Lysis buffer mixed with protease and phosphatase cocktail added to each well. A freeze thaw was performed at −80° C., then mixed before transferring 50 μl to MSD plates coated with V5-tag antibody to capture Tau. MSD Plates were incubated overnight at 4° C., on a plate shaker. The following day, plates were washed and incubated with Tau-S400-GlcNAc antibody for 2 hr and then developed with rabbit Sulfo-tag antibody. Final read out was carried out on an MSD 600 reader. The data was analyzed using Graph Pad or Genedata, the data was normalized and % activity versus log of compound concentration was plotted. The ICso values were obtained from a 4 parameter fit.
# Recombinant full length human OGA enzyme, sequence (O60502 whole entry): as above
Structure (SMILES),IC50 [1],IC50 (OGA (S400 O-GLCNAC))
"CC(=O)Nc1nc(F)c(CN2CCC[C@]3(C2)OCc2c3ccnc2Cl)s1 [Example 84-b, (S)—N-(5-((4-chloro-3H-spiro[furo[3,4-c]pyridine-1,3′-piperidin]-1′-yl)methyl)-4-fluorothiazol-2-yl)acetamide]",0.31 µM,> 1 µM
"COc1nccc2c1C[C@]1(C[C@H](C)N(Cc3sc(NC(C)=O)nc3F)C1)O2 [Example 18, N-(4-Fluoro-5-(((2R,5′S)-4-methoxy-5′-methyl-3H-spiro[furo[3,2-c]pyridine-2,3′-pyrrolidin]-1′-yl)methyl)thiazol-2-yl)acetamide]",0.002 µM,0.004 µM
"CC(=O)Nc1nc(F)c(CN2C[C@@]3(Cc4ccccc4O3)C[C@@H]2C)s1 [Example 1, N-(4-Fluoro-5-(((2R,5′S)-5′-methyl-3H-spiro[benzofuran-2,3′-pyrrolidin]-1′-yl)methyl)thiazol-2-yl)acetamide]",0.015 µM,0.865 µM
"CC(=O)Nc1nc(F)c(CN2CCC3(Cc4cnccc4O3)C2)s1 (centres unmarked) [Example 12, N-(5-((3H-Spiro[furo[3,2-c]pyridine-2,3′-pyrrolidin]-1′-yl)methyl)-4-fluorothiazol-2-yl)acetamide]",0.035 µM,0.093 µM
"CC(=O)Nc1nc(F)c(CN2CCCC3(C2)OCc2ccccc23)s1 (centres unmarked) [Example 56, N-(5-((3H-Spiro[isobenzofuran-1,3′-piperidin]-1′-yl)methyl)-4-fluorothiazol-2-yl)acetamide]",0.017 µM,0.112 µM
"CC(=O)Nc1nc(F)c(CN2C[C@@]3(Cc4cc(C(F)(F)F)ncc4O3)C[C@@H]2C)s1 [Example 21, N-(4-Fluoro-5-(((2R,5′S)-5′-methyl-5-(trifluoromethyl)-3H-spiro[furo[2,3-c]pyridine-2,3′-pyrrolidin]-1′-yl)methyl)thiazol-2-yl)acetamide]",0.007 µM,0.006 µM
"CC(=O)Nc1nc(F)c(CN2C[C@@]3(Cc4cc(N5CCC5)ncc4O3)C[C@@H]2C)s1 [Example 34, N-(5-(((2R,5′S)-5-(Azetidin-1-yl)-5′-methyl-3H-spiro[furo[2,3-c]pyridine-2,3′-pyrrolidin]-1′-yl)methyl)-4-fluorothiazol-2-yl)acetamide]",< 0.001 µM,0.001 µM
"CC(=O)Nc1ncc(CN2CCCC3(C2)OCc2c3ccnc2Cl)s1 (centres unmarked) [Example 85, N-(5-((4-Chloro-3H-spiro[furo[3,4-c]pyridine-1,3′-piperidin]-1′-yl)methyl)thiazol-2-yl)acetamide]",0.0045 µM,0.017 µM
"CC(=O)Nc1ncc(CN2CC3(CCC2C)OCc2ccccc23)s1 (centres unmarked) [Example 60, N-(5-((6′-Methyl-3H-spiro[isobenzofuran-1,3′-piperidin]-1′-yl)methyl)thiazol-2-yl)acetamide]",1.7 µM,> 1 µM
"CC(=O)Nc1ncc(CN2CC3(C[C@@H]2C)OCc2ncccc23)s1 (stereo partly drawn) [Example 80, N-(5-(((5′S)-5′-Methyl-7H-spiro[furo[3,4-b]pyridine-5,3′-pyrrolidin]-1′-yl)methyl)thiazol-2-yl)acetamide]",0.049 µM,0.015 µM
"CCOc1cc2c(cn1)O[C@]1(C2)C[C@H](C)N(Cc2sc(NC(C)=O)nc2F)C1 [Example 46, N-(5-(((2R,5′S)-5-Ethoxy-5′-methyl-3H-spiro[furo[2,3-c]pyridine-2,3′-pyrrolidin]-1′-yl)methyl)-4-fluorothiazol-2-yl)acetamide]",< 0.001 µM,0.003 µM
"CC(=O)Nc1ncc(CN2C[C@@]3(Cc4cc(N5CCN(C)CC5)ncc4O3)C[C@@H]2C)s1 [Example 44, N-(5-(((2R,5′S)-5′-Methyl-5-(4-methylpiperazin-1-yl)-3H-spiro[furo[2,3-c]pyridine-2,3′-pyrrolidin]-1′-yl)methyl)thiazol-2-yl)acetamide]",< 0.001 µM,0.013 µM
"CC(=O)Nc1ncc(CN2C[C@@]3(Cc4cc(N5CCOCC5)ncc4O3)C[C@@H]2C)s1 [Example 37, N-(5-(((2R,5′S)-5′-Methyl-5-morpholino-3H-spiro[furo[2,3-c]pyridine-2,3′-pyrrolidin]-1′-yl)methyl)thiazol-2-yl)acetamide]",< 0.001 µM,0.009 µM
